Where two headings read alike, the source gives them in different places.
Columns and labels:
[1] = target: NS3-NS5 interaction (NS3 f.l. binding to coated 6His-NS5_270–900) (Dengue virus type 2, UniProt P14340); assay: ELISA-based NS3-NS5 interaction assay; design: species or system DENV-2; details: for IC50: read-out: In vitro activity IC50; for reduction of NS3-NS5 interaction: at the tested concentrations; for inhibition at 100 µM: fixed concentration of 100 μM, compared with DMSO control
Procedure: Nunc Maxisorp microplates (Thermo Fisher Scientific) were coated with 400 ng/well of 6His-NS5_270–900, or GST protein as a control, in PBS for 3 h at 37 °C and then blocked with 5% (wt/v) bovine serum albumin (BSA, Merck Life Science) in PBS overnight at 4 °C. Blocked wells were incubated at room temperature (RT) for 2 h with increasing amounts of NS3 f.l. or GST–NS3_172–618. 6His-NS5_270–900-coated plates were also incubated with increasing concentration of GST, as a control. After washing with PBS containing 0.3% Tween 20 (Fisher Scientific, Waltham, MA, United States), the NS3-NS5 interaction was detected by incubating the plates with the anti-NS3 monoclonal antibody (GT2811 clone, Genetex, Irvine, CA, United States) diluted 1:6,000 in PBS + 2% (v/v) FBS (Thermo Fisher Scientific) for 1 h at RT. The unbound primary antibody was removed by further washes with PBS + 0.3% Tween 20 and the secondary goat anti-mouse HRP-conjugated antibody (GenScript Biotech) at a dilution of 1:8,000 in PBS + 2% FBS was then added. After incubation for 1 h at RT and following washes, the colorimetric substrate 3,3′,5,5′-tetramethylbenzidine (TMB, SeraCare Life Sciences, Milford, MA, United States) was added to each well and absorbance was read at 450 nm by an ELISA plate reader (Tecan Infinite 200 PRO, Mannedorf, Switzerland).
To test the inhibitory effect of compounds on NS3-NS5 interaction, 6His-NS5_270–900-coated wells were incubated with a fixed amount of NS3 f.l. (200 ng) along with increasing concentrations of test compounds or DMSO as a control. To exclude non-specific inhibition of compounds due to colloidal aggregation, the inhibitory activities of compounds were tested in the presence or the absence of 0.002% Triton X-100 (Fisher Scientific), a condition which reverses and prevents the colloidal formation of organic molecules ([McGovern et al., 2003]). All the compound concentrations were tested at least in duplicate.

DENV-2 NGC strain = assay: Plaque reduction assay (PRA) in Vero cells; type: cell-based; details: for EC50: PRA in Vero cells, read-out: Antiviral activity EC50; for SI (selectivity index): ratio between CC50 and EC50
Vero cells [2] = assay: MTT cytotoxicity assay; details: read-out: Cytotoxicity CC50; best analogues of hit 3, in-house synthesized hit 3 as control; MTT in Vero cells at 72 h
Vero cells [3] = system: Vero cells
MTT cytotoxicity assay = details: African green monkey, Vero cells
[4] = analogues of hit 3, in-house synthesized hit 3 as control, 50% inhibition of NS3-NS5 binding in ELISA
[5] = best analogues of hit 3, in-house synthesized hit 3 as control, NGC strain
[6] = Dengue virus, DENV2, Vero, selected hits, 50% inhibition of viral plaque formation, DENV-2
[7] = selected hits, concentration that decreased the NS3-NS5 binding by 50% in ELISA

O=C(NNC(=S)Nc1ccc(Cl)cc1Cl)c1ccccc1O [Compound 51]
IC50 [1, 4]: 97.2 ± 24.3 µM

COc1ccc(C(=O)NNC(=S)Nc2ccccc2)cc1 [Compound 52]
IC50 [1, 4]: 167 ± 29 µM

O=C(NNC(=S)Nc1ccccc1)c1ccccc1O [Compound 53]
IC50 [1, 4]: 82.7 ± 21.5 µM

CCOC(=O)c1ccc(NC(=S)NNC(=O)c2ccccc2O)cc1 [Compound 54]
IC50 [1, 4]: 31 ± 18.3 µM

Cc1ccc(NC(=S)NNC(=O)c2ccc(C(F)(F)F)cc2)cc1 [Compound 55]
IC50 [1, 4]: 118 ± 23 µM

COc1ccccc1C(=O)NNC(=S)Nc1ccc(C)cc1 [Compound 56]
IC50 [1, 4]: 21.2 ± 3.4 µM

Cc1ccc(NC(=S)NNC(=O)c2ccccc2)cc1 [Compound 57]
IC50 [1, 4]: 55.6 ± 22.7 µM

Cc1ccc(NC(=S)NNC(=O)c2ccccc2F)cc1 [Compound 58]
IC50 [1, 4]: 21.3 ± 7.9 µM

Cc1ccc(NC(=S)NNC(=O)c2ccccc2C)cc1 [Compound 59]
IC50 [1, 4]: 29 ± 6.9 µM

Cc1ccc(NC(=S)NNC(=O)c2ccc(C)cc2)cc1 [Compound 60]
IC50 [1, 4]: 149 ± 21 µM

Cc1ccc(NC(=S)NNC(=O)c2cccc(O)c2)cc1 [Compound 61]
IC50 [1, 4]: > 200 µM
reduction of NS3-NS5 interaction [1]: < 50%

Cc1ccc(NC(=S)NNC(=O)c2ccc(O)cc2)cc1 [Compound 62]
IC50 [1, 4]: > 200 µM
reduction of NS3-NS5 interaction [1]: < 50%

Cc1ccc(NC(=S)NNC(=O)c2ccc(O)cc2O)cc1 [Compound 63]
IC50 [1, 4]: 172 ± 31 µM

Cc1ccc(NC(=S)NNC(=O)c2ccccn2)cc1 [Compound 64]
EC50 (DENV-2 NGC strain; [5]): 2.1 ± 1.6 µM
CC50 (Vero cells [2]): 39.6 ± 10.2 µM

Cc1ccc(NC(=S)NNC(=O)c2cccs2)cc1 [Compound 65]
IC50 [1, 4]: 64.9 ± 19.5 µM

CN(C)c1ccc(NC(=S)NNC(=O)c2ccccc2O)cc1 [Compound 66]
IC50 [1, 4]: 12.5 ± 4.1 µM

O=C(NNC(=S)Nc1ccc([N+](=O)[O-])cc1)c1ccccc1O [Compound 67]
IC50 [1, 4]: > 200 µM
reduction of NS3-NS5 interaction [1]: < 50%

Cc1ccc(NC(=S)NNC(=O)c2ccco2)cc1 [Compound 68]
IC50 [1, 4]: 20.1 ± 7.5 µM

CN(C)c1ccc(NC(=S)NNC(=O)c2ccccn2)cc1 [Compound 69]
EC50 (DENV-2 NGC strain; [5]): 12.4 ± 5.8 µM
fold lower IC50 than hit 3 ([1]; IC50 of 1.0 μM versus 15.6 μM): 15 fold
CC50 (Vero cells [3]): 72 ± 17.2 µM

CN(C)c1ccc(NC(=S)NNC(=O)c2cccs2)cc1 [Compound 70]
IC50 [1, 4]: 25.3 ± 5.4 µM

CN(C)c1ccc(NC(=S)NNC(=O)c2ccco2)cc1 [Compound 71]
IC50 [1, 4]: 11.6 ± 2.6 µM

Cc1ccc(NC(=S)NNC(=O)c2ccc(C(C)(C)C)cc2)cc1 [Compound 72]
EC50 (DENV-2 NGC strain; [5]): 2.8 ± 1.9 µM
CC50 (Vero cells [3]): 211 ± 20 µM

Cc1ccc(NC(=S)NNC(=O)c2ccc(C(F)(F)F)cc2C(F)(F)F)cc1 [Compound 73]
IC50 [1, 4]: > 200 µM
reduction of NS3-NS5 interaction [1]: < 50%

COc1ccc(NC(=S)NNC(=O)c2ccccc2O)cc1 [Compound 74]
IC50 [1, 4]: > 200 µM
reduction of NS3-NS5 interaction [1]: < 50%

N#Cc1ccc(NC(=S)NNC(=O)c2ccccc2O)cc1 [Compound 75]
IC50 [1, 4]: 40.3 ± 8.3 µM

CC(C)(C)c1ccc(NC(=S)NNC(=O)c2ccccc2O)cc1 [Compound 76]
IC50 [1, 4]: 6.3 ± 2.2 µM

Cc1ccc(NC(=S)NNC(=O)c2ccc(C#N)cc2)cc1 [Compound 77]
IC50 [1, 4]: > 200 µM
reduction of NS3-NS5 interaction [1]: < 50%

Cc1ccc(Nc2nc(-c3ccccc3O)cs2)cc1 [Compound 78]
IC50 [1, 4]: > 200 µM
reduction of NS3-NS5 interaction [1]: < 50%

Cc1ccc(NC(=O)NNC(=O)c2ccccc2O)cc1 [Compound 79]
IC50 [1, 4]: 13.9 ± 6.5 µM

O=C(NCc1nc2ccccc2[nH]1)c1ccc2[nH]nnc2c1 [Hit 1]
EC50 (DENV-2 NGC strain; [6]): > 100 µM
SI (selectivity index) (DENV-2 NGC strain; selected hits): >3
inhibition at 100 µM [1]: ≥ 50%
IC50 [1, 7]: 85.9 ± 14.5 µM
CC50 at 72 h (MTT cytotoxicity assay): > 250 µM

Cc1ccc(C(=O)Nc2cc(-c3cccc(F)c3F)n[nH]2)c(=O)[nH]1 [Hit 4]
EC50 (DENV-2 NGC strain; [6]): > 10 µM
SI (selectivity index) (DENV-2 NGC strain; selected hits): 1
inhibition at 100 µM [1]: ≥ 50%
IC50 [1, 7]: 18.7 ± 2.1 µM
CC50 at 72 h (MTT cytotoxicity assay): 12.7 ± 4 µM

Cc1nc(NC(=O)c2ccc(C(N)=O)cc2)sc1SCC#N [Hit 6]
EC50 (DENV-2 NGC strain; [6]): 98.8 ± 10.4 µM
SI (selectivity index) (DENV-2 NGC strain; selected hits): >3
inhibition at 100 µM [1]: ≥ 50%
IC50 [1, 7]: 51.4 ± 10.3 µM
CC50 at 72 h (MTT cytotoxicity assay): > 250 µM

N=c1c2cnn(-c3ccccc3)c2ncn1NC(=S)Nc1ccccc1 [Hit 15]
EC50 (DENV-2 NGC strain; [6]): > 100 µM
SI (selectivity index) (DENV-2 NGC strain; selected hits): >3
inhibition at 100 µM [1]: ≥ 50%
IC50 [1, 7]: 123 ± 16 µM
CC50 at 72 h (MTT cytotoxicity assay): > 250 µM

NC(=O)COc1ccc(CNC(=O)Nc2ccc(Cl)cc2)cc1 [Hit 29]
EC50 (DENV-2 NGC strain; [6]): 34.3 ± 9.4 µM
SI (selectivity index) (DENV-2 NGC strain; selected hits): 1
inhibition at 100 µM [1]: ≥ 50%
IC50 [1, 7]: 142 ± 26 µM
CC50 at 72 h (MTT cytotoxicity assay): 35.7 ± 4.9 µM

O=C(NCc1ncc(-c2ccccc2)[nH]1)Nc1ccncc1F [Hit 30]
EC50 (DENV-2 NGC strain; [6]): 24.6 ± 5.9 µM
inhibition at 100 µM [1]: ≥ 50%
IC50 [1, 7]: 44.6 ± 8.1 µM
CC50 at 72 h (MTT cytotoxicity assay): > 250 µM

O=C(CCc1ccccn1)Nc1ccc2[nH]nnc2c1 [Hit 44]
EC50 (DENV-2 NGC strain; [6]): 97.4 ± 12.6 µM
SI (selectivity index) (DENV-2 NGC strain; selected hits): >1
inhibition at 100 µM [1]: ≥ 50%
IC50 [1, 7]: 78.5 ± 16.4 µM
CC50 at 72 h (MTT cytotoxicity assay): > 100 µM

N#Cc1nc2c(-c3nc4ccccc4[nH]3)c(N)n(Cc3ccco3)c2nc1C#N [Hit 47]
EC50 (DENV-2 NGC strain; [6]): 53.5 ± 6.9 µM
SI (selectivity index) (DENV-2 NGC strain; selected hits): >5
inhibition at 100 µM [1]: ≥ 50%
IC50 [1, 7]: 16.9 ± 2.5 µM
CC50 at 72 h (MTT cytotoxicity assay): > 250 µM

N#Cc1cn[nH]c1NCc1ccc(OCc2ccccc2)cc1O [Hit 50]
EC50 (DENV-2 NGC strain; [6]): 13.4 ± 1.8 µM
SI (selectivity index) (DENV-2 NGC strain; selected hits): >19
inhibition at 100 µM [1]: ≥ 50%
IC50 [1, 7]: 32 ± 6.7 µM
CC50 at 72 h (MTT cytotoxicity assay): > 250 µM

CC(C)C[C@H](NC(=O)[C@H](C)NC(=O)[C@H](CC(C)C)NC(=O)[C@@H](NC(=O)[C@H](CCC(N)=O)NC(=O)[C@@H](NC(=O)[C@H](CCC(=O)O)NC(=O)[C@H](CCC(=O)O)NC(=O)CNC(=O)[C@H](CCC(=O)O)NC(=O)[C@H](CCCCN)NC(=O)[C@H](Cc1c[nH]c2ccccc12)NC(=O)[C@H](CCC(=O)O)NC(=O)CNC(=O)[C@@H](N)CCC(=O)O)C(C)C)C(C)C)C(=O)O [NS3_86–100 peptide, reference compound]
inhibitory effect on NS3-NS5 interaction ([1]; up to 480 μM): no inhibitory effect

Source: publication PMC12615485, “New dengue virus inhibitors targeting NS3-NS5 interaction identified by in silico screening” (Frontiers in Microbiology, 2025)
